# Reference: patent publication US3992446A, “Substituted aminochlorobenzylamino guanidine compounds” (American Cyanamid Company, priority 1975, dated 1976)
# Counter-ions that a name gives are not always drawn. Like-named read-outs stand apart in the source and are kept apart here.
# Assays:
# Type in all cases: in vivo
# Eimeria tenella = assay: anticoccidial activity against Eimeria tenella in inoculated Peterson Cross Cockerels, medicated diet, survival; conditions: 168 h; for responders at 20 µg/mL: 20 parts per million in diet; for responders at 120 µg/mL: 120 parts per million in diet; for responders at 15 µg/mL: 15 parts per million in diet
# Description: (§1) For example, these compounds have anticoccidial activity against Eimeria tenella as shown by the following test: The animals were Peterson Cross Cockerels, 7 days old and of approximately equal size and weight. These cockerels were divided into groups and the groups were placed in separate cages with wire floors. Medicated and control diets were then presented to the groups of birds 2 days before inoculation while they were still in uncontaminated quarters. During the entire period of the tests, the birds ate and drank ad libitum. Control groups were maintained on a standard unmedicated commercial type chicken diet. Test groups were maintained on the same standard diet in which a measured concentration of test compound had been incorporated homogeneously. The cockerels were inoculated once orally with sporulated oocysts of Eimeria tenella. The number of oocysts inoculated directly into the crops of all cockerels in the tests was sufficient to produce high mortality in the untreated controls. […] Seven days following inoculation the tests were terminated and the mortality rate was recorded for each group. […] The tests represent very severe laboratory challenges, and lower concentrations than those shown would be effective under practical field conditions.
# Eimeria necatrix = assay: anticoccidial activity against Eimeria necatrix in chickens (survival, weight gain); conditions: for % Survival / Weight gain: necatrix; for Weight gain: 7 days after inoculation
# Description: as §1
# (§2) The compounds of the present invention have high activity against other coccidial species in chickens. […] Methods used were essentially identical with those previously cited with appropriate modifications. Weight gains were determined 7 days after single experimental inoculations with the designated species of coccidia.
# coccidia = assay: anti-coccidial activity, comparison with prior art compounds of Lieber et al.
# E. brunetti = assay: anticoccidial activity against E. brunetti in chickens (survival, weight gain); conditions: for % Survival / Weight gain: brunetti; for Weight gain: 7 days after inoculation
# Description: as §1, §2
# E. maxima = assay: anticoccidial activity against E. maxima in chickens (survival, weight gain); conditions: for % Survival / Weight gain: maxima; for Weight gain: 7 days after inoculation
# Description: as §1, §2
# E. mivati = assay: anticoccidial activity against E. mivati in chickens (survival, weight gain); conditions: for % Survival / Weight gain: mivati; for Weight gain: 7 days after inoculation
# Description: as §1, §2
# E. acervulina = assay: anticoccidial activity against E. acervulina in chickens (survival, weight gain)
# Description: as §1, §2
# [1] = 30 parts per million in diet, 7 days after inoculation, read-out: % Survival
# [2] = 10 parts per million in diet, 7 days after inoculation, read-out: % Survival
smiles,measurement,setting,value
"N=C(NN=Cc1ccc(Cl)cc1)NN=Cc1ccc(Cl)cc1 [1,3-bis(4-chlorobenzylideneamino)guanidine methosulfate]",responders at 20 µg/mL,Eimeria tenella; 7 days after inoculation,59%
same,responders at 40 µg/mL,"Eimeria tenella; 40 parts per million in diet, 7 days after inoculation",90%
same,responders at 60 µg/mL,"Eimeria tenella; 60 parts per million in diet, 7 days after inoculation, read-out: % Survival",98%
same,% Survival,Eimeria necatrix; 15 ppm in diet,100%
same,Weight gain,Eimeria necatrix; 15 ppm in diet,80 % control
same,% Survival,Eimeria necatrix; 30 ppm in diet,100%
same,Weight gain,Eimeria necatrix; 30 ppm in diet,103 % control
same,Activity (anti-coccidial),coccidia; dosage 20 parts per million,active
"N=C(NN=Cc1ccc(Cl)c(Cl)c1)NN=Cc1ccc(Cl)c(Cl)c1 [1,3-Bis(3,4-dichlorobenzylideneamino)guanidine Nitrate]",responders at 60 µg/mL,Eimeria tenella; read-out: % Survival,100%
"N#Cc1ccc(C=NNC(=N)NN=Cc2ccc(C#N)cc2)cc1 [1,3-Bis(4-cyanobenzylideneamino)guanidine Nitrate]",responders at 30 µg/mL,Eimeria tenella; read-out: % Survival,80%
same,responders at 60 µg/mL,Eimeria tenella; read-out: % Survival,100%
"Cl.N=C(NN=Cc1ccc(Cl)cc1)NN=Cc1ccc(Cl)cc1 [1,3-bis(4-chlorobenzylideneamino)-guanidine hydrochloride]",responders at 8.5 µg/mL,Eimeria tenella; read-out: % Survival,45%
same,responders at 17 µg/mL,Eimeria tenella; read-out: % Survival,75%
same,responders at 33 µg/mL,Eimeria tenella; read-out: % Survival,100%
same,% Survival,E. brunetti; 15 ppm in diet,100%
same,Weight gain,E. brunetti; 15 ppm in diet,100 % control
same,% Survival,E. brunetti; 30 ppm in diet,100%
same,Weight gain,E. brunetti; 30 ppm in diet,95 % control
same,% Survival,E. maxima; 15 ppm in diet,100%
same,Weight gain,E. maxima; 15 ppm in diet,101 % control
same,% Survival,E. maxima; 30 ppm in diet,100%
same,Weight gain,E. maxima; 30 ppm in diet,95 % control
same,% Survival,E. maxima; 45 ppm in diet,100%
same,Weight gain,E. maxima; 45 ppm in diet,100 % control
same,% Survival,E. mivati; 15 ppm in diet,100%
same,Weight gain,E. mivati; 15 ppm in diet,86 % control
same,% Survival,E. mivati; 30 ppm in diet,100%
same,Weight gain,E. mivati; 30 ppm in diet,91 % control
same,% Survival,E. mivati; 45 ppm in diet,100%
same,Weight gain,E. mivati; 45 ppm in diet,100 % control
same,Activity (anti-coccidial),coccidia; dosage 8.5 parts per million,active
"N=C(NN=Cc1ccc(OC(F)(F)F)cc1)NN=Cc1ccc(OC(F)(F)F)cc1 [1,3-bis(4-Trifluoromethoxybenzylideneamino)guanidine Hydrochloride]",responders at 5 µg/mL,Eimeria tenella; read-out: % Survival,80%
same,responders at 10 µg/mL,Eimeria tenella; read-out: % Survival,100%
"CC(=O)c1ccccc1 [14) acetophenone, reference compound]",Activity (anti-coccidial),coccidia; dosage 250 parts per million,inactive
"O=Cc1ccccc1O [11) salicylaldehyde, reference compound]",Activity (anti-coccidial),coccidia; dosage 125 parts per million,inactive
"CN(N=Cc1ccc(Cl)cc1)C(=N)N(C)N=Cc1ccc(Cl)cc1 [1,3-Bis(4-chlorobenzylideneamino)-1,3-dimethylguanidine hydrobromide]",responders at 30 µg/mL,Eimeria tenella; [1],100%
same,responders at 120 µg/mL,Eimeria tenella; 7 days after inoculation,100%
"N=C(NN=Cc1ccc(C(F)(F)F)cc1)NN=Cc1ccc(C(F)(F)F)cc1 [1,3-Bis(4-trifluoromethylbenzylideneamino)guanidine hydrochloride]",responders at 120 µg/mL,Eimeria tenella; 7 days after inoculation,100%
"Cl.N=C(NN=Cc1ccc(I)cc1)NN=Cc1ccc(I)cc1 [1,3-Bis(4-iodobenzylideneamino)guanidine Hydrochloride]",responders at 30 µg/mL,Eimeria tenella; [1],55%
same,Activity (anti-coccidial),coccidia; dosage 30 parts per million,active
N=C(NN=Cc1ccc(Cl)cc1)NNCc1ccc(Cl)cc1 [1-(4-Chlorobenzylamino)-3-(4-chlorobenzylideneamino)guanidine],responders at 15 µg/mL,Eimeria tenella; 7 days after inoculation,90%
same,responders at 30 µg/mL,Eimeria tenella; [1],100%
"O=Cc1ccccc1O [12) salicylaldehyde, reference compound]",Activity (anti-coccidial),coccidia; dosage 200 parts per million,inactive
"N=C(NN=Cc1ccc(Cl)cc1)NN=Cc1ccc(Cl)cc1.O=[N+]([O-])O [1,3-Bis(4-chlorobenzylideneamino)guanidine nitrate]",responders at 18 µg/mL,Eimeria tenella; read-out: % Survival,77%
same,responders at 36 µg/mL,Eimeria tenella; read-out: % Survival,96%
same,responders at 54 µg/mL,Eimeria tenella; read-out: % Survival,100%
same,% Survival,"E. acervulina; acervulina, 45 ppm in diet",100%
same,Weight gain,"E. acervulina; acervulina, 45 ppm in diet, 7 days after inoculation",99 % control
same,Activity (anti-coccidial),coccidia; dosage 18 parts per million,active
"N=C(NN=Cc1ccc(Br)cc1)NN=Cc1ccc(Br)cc1.O=[N+]([O-])O [1,3-Bis(4-bromobenzylideneamino)guanidine Nitrate]",responders at 17 µg/mL,Eimeria tenella; read-out: % Survival,80%
same,responders at 35 µg/mL,Eimeria tenella; read-out: % Survival,95%
same,Activity (anti-coccidial),coccidia; dosage 17 parts per million,active
"N=C(NN=Cc1ccc(F)cc1)NN=Cc1ccc(F)cc1 [1,3-Bis(4-fluorobenzylideneamino)guanidine Nitrate]",responders at 93 µg/mL,Eimeria tenella; read-out: % Survival,80%
"O=Cc1ccc2c(c1)OCO2 [9) piperonal, reference compound]",Activity (anti-coccidial),coccidia; dosage 125 parts per million,inactive
"CC(=O)N=C(NN=Cc1ccc(Cl)cc1)NN=Cc1ccc(Cl)cc1 [2-acetyl-1,3-bis(4-chlorobenzylideneamino)guanidine]",responders at 5 µg/mL,"Eimeria tenella; 5 parts per million in diet, 7 days after inoculation, read-out: % Survival",67%
same,responders at 10 µg/mL,Eimeria tenella; [2],95%
same,responders at 30 µg/mL,Eimeria tenella; [1],100%
"N=C(NNCc1ccc(Cl)cc1)NNCc1ccc(Cl)cc1 [1,3-bis(4-chlorobenzylamino)guanidine]",responders at 10 µg/mL,Eimeria tenella; [2],90%
same,responders at 15 µg/mL,Eimeria tenella; 7 days after inoculation,90%
same,responders at 20 µg/mL,Eimeria tenella; 7 days after inoculation,100%
"N=C(NN=Cc1ccc(Cl)cc1)NN=Cc1ccc(Cl)cc1 [1,3-Bis(4-chlorobenzylideneamino)guanidine]",protection from mortality due to Eimeria necatrix,Eimeria necatrix; treated chickens,completely protected
same,protection from poor weight gains due to E. acervulina,E. acervulina; treated chickens,completely protected
same,protection from poor weight gains due to E. brunetti,E. brunetti; treated chickens,completely protected
same,protection from poor weight gains due to E. maxima,E. maxima; treated chickens,completely protected
same,protection from poor weight gains due to E. mivati,E. mivati; treated chickens,completely protected
